The text below walks through data of patent US12186331B2, “Compositions comprising at least one n-acetylated and at least one fucosylated oligosaccharide for use in the promotion of digestive capacity in infants and young children” (SOCIETE DES PRODUITS NESTLE S.A., priority 2017, dated 2025).

This experiment relates to villi in the ileum of IUGR rats. The experiment in a line: Villi length in the ileum of young rats with intra-uterine growth retardation (IUGR) fed HMO-supplemented diet. The class given is in vivo, Sprague-Dawley rats. The settings on record: IUGR rat pups, 3 g/kg body weight by gavage d7-d21, 4.5% in diet d22-d57, sacrifice at day 57, compared with IUGR group and other groups. The text has this: Three groups of time-mated pregnant Sprague-Dawley female rats were bought from Charles River laboratories. One group was submitted to food restriction of 60% during the last 10 days of gestation and their offspring were cross-fostered to normally fed rats. A second group of pregnant females was normally fed and their offspring cross-fostered among the same group of dams. […] Normal-weight offspring born from unrestricted dams and fed a normal non-supplemented diet; • IUGR group (negative control; n=20): IUGR rats being fed a normal diet after birth; • IUGR rats+HMO (test groups): During the experiment, they were reared by their mothers for 21 days and supplemented with HMOs (2FL, LNnT or the Mix of 2FL and LNnT). At weaning, they were fed a diet supplemented with the same HMOs, see details below. […] All rat pups were fed from birth (d=1) up to 57 days (d=57) based on the following protocol: • d1 to d6: all groups of rats were nursed by dam (mothers' milk only); • d7 to d21: all rats were nursed by dam (mothers' milk only). But in the test groups, 3 g/kg body weight of HMO were also administered by gavage: • 3 g/kg body weight of 2FL, for the IUGR/2FL group; • 3 g/kg body weight of LNnT, for the IUGR/LNnT group; • 3 g/kg body weight of a mix of LNnT and 2FL at a 1:2 weight ratio, for the IUGR/HMOs mix group; • […] to […]: all rats were fed a diet as detailed in Table 2 below. Rats were sacrificed at day 57 after a 6-hr fasting period and samples of the small intestine were collected. The length of the villi was measured on a sample of the ileum. One 1-cm sample from the ileum (1 cm cranial from caecum) was collected and flushed with PBS (Sigma D8537). This section was fixed and processed accordingly for histological and morphometric analysis. Two consecutive 4 μm-thick sections of fixed tissue were stained manually with hematoxylin and eosin to determine villus height. […] Ten randomly selected villi were measured in two different segments to determine the mean villi length.

Entries after “also recorded” stand apart in the source; their conditions may differ.

For 2′-fucosyllactose [2FL], the “mean villi length in the ileum” value is on record as “neither 2FL, nor LNnT achieved a statistically significant effect when used alone”. In addition, the “mean villi length in the ileum” value (listed as 2-FL) is listed as “no significant difference with the IUGR group”.

For `CC(=O)N[C@H]1[C@H](O[C@H]2[C@@H](O)[C@@H](CO)O[C@@H](O[C@H]3[C@H](O)[C@@H](O)C(O)O[C@@H]3CO)[C@@H]2O)O[C@H](CO)[C@@H](O[C@@H]2O[C@H](CO)[C@H](O)[C@H](O)[C@H]2O)[C@@H]1O` (mixture of isomers) [LNnT, lacto-N-neotetraose], the “mean villi length in the ileum” value was “neither 2FL, nor LNnT achieved a statistically significant effect when used alone; also recorded: no significant difference with the IUGR group”.
